Tests used:
[1] = test system: Plasmodium falciparum; assay: NOVARTIS: Inhibition of Plasmodium falciparum W2 (drug-resistant) proliferation in erythrocyte-based infection assay; type: functional, organism-based; details: Plasmodium falciparum, W2; read-out: EC50
[2] = test system: Plasmodium falciparum; assay: NOVARTIS: Inhibition of Plasmodium falciparum 3D7 (drug-susceptible) proliferation in erythrocyte-based infection assay; type: functional, organism-based; details: Plasmodium falciparum, 3D7
[3] = NOVARTIS: Cytotoxicity against human hepatocellular carcinoma cell line (Huh7); type: toxicity, cell-based, Huh-7; details: Huh7 cells (hepatocellular carcinoma cell line)

SMILES | EC50 [1] [nM] | EC50 [2] [nM] | CC50 [3] [nM]
c1ccc(C2CC(C3CC(c4ccccc4)OC(c4ccccc4)C3)CC(c3ccccc3)O2)cc1 (stereo unspecified) | 394 | 1240 | > 10000
O=C(CCl)NCCOc1ccc(Cl)cc1Cl | 511 | 538 | 13000
CCOc1ccc2[nH]c(=O)c(CN(CCc3ccccc3)C(=O)c3cnccn3)cc2c1 | > 397 | > 428 | > 10000
O=C(Nc1ccc(C2=NCCN2)cc1)c1cccc2c(C(=O)Nc3ccc(C4=NCCN4)cc3)cccc12 | 397 | 83.9 | > 10000
CCOc1ccc2nc(C)cc(Nc3ccc(N(C)C)cc3)c2c1 | 662 | 344 | 16600
CC(=O)N1CCN(c2ccc(NC(=S)NC(=O)c3ccc(C)cc3)cc2)CC1 | 3790 | > 12500 | > 95700
O=C(NCCc1ccccc1)c1cnc(NCCC2=CCCCC2)nc1NCC1CCCCC1 | 395 | 436 | > 10000
Cc1cc(Nc2cccc3ccccc23)nc(Nc2cccc3ccccc23)n1 | 395 | 274 | > 10000
CC(C)(C)c1ccc2[nH]c3c(c2c1)CCCC3=NO | 831 | 5020 | 20900
CC(C)CCn1nc(C(=O)N2CCOCC2)c2c1CCN(C(=O)c1ccc(N3CCOCC3)cc1)C2 | 3960 | > 11800 | > 100000
Cc1ccccc1[S+]([O-])Cc1ccc(C(=O)N2CCN(c3ccccn3)CC2)o1 (stereo unspecified) | 1660 | > 7130 | > 42000
COC(=O)c1ccc2c(c1)C(=O)c1ccccc1C2C1c2ccccc2C(=O)c2cc(C(=O)OC)ccc21 (stereo unspecified) | 397 | 856 | > 10000
CCN(CC)CCCN(Cc1cc2cc(OC)ccc2[nH]c1=O)C(=S)Nc1cccc(Cl)c1 | 809 | 798 | 20500
O=C(NNc1nc2ccccc2nc1Cl)Nc1ccc(Cl)cc1 | 306 | 218 | 7760
O=C1C(Nc2ccccc2)=C(N2CCCCC2)C(=O)c2ccccc21 | 590 | 383 | 15000
CCC(=O)N1CCc2cc(S(=O)(=O)N3CCN(c4cccc(C(F)(F)F)c4)CC3)ccc21 | 398 | 574 | > 10000
O=C1C2C(C(=O)N1c1ccc(Br)cc1)C1C=CC2C12CC2 (stereo unspecified) | 3980 | > 12500 | > 100000
CC(C)(C)c1ccc(-c2c[n+](-c3ccccc3)c3n2CCCS3)cc1 | 313 | 221 | 7870
Cc1ccc(C(=O)Nc2ccc(-c3nc4cc5ccccc5cc4[nH]3)cc2)cc1[N+](=O)[O-] | 3980 | 4300 | > 100000
Cc1cc(N2CCN(C/C=C/c3ccccc3)CC2)n2c(nc3ccccc32)c1C#N | 395 | 415 | > 10000
CC(=O)N(C1=C(N2CCOCC2)C(=O)c2ccccc2C1=O)c1cccc(Cl)c1 | 187 | 214 | 4720
COc1ccc(-c2nc(-c3ccc4c(c3)-c3cc(-c5[nH]c(-c6ccc(OC)cc6)nc5-c5ccccc5)ccc3C4=O)c(-c3ccccc3)[nH]2)cc1 | 3750 | 7300 | 94500
Cc1cc(C)n(-c2ncc(-c3ccc([N+](=O)[O-])cc3)cn2)n1 | 3960 | > 12500 | > 100000
CSc1cccc(NC(=O)C2C3C=CC4(O3)C2C(=O)N(CCN2CCCCC2)C4C(=O)NC2CCCC(C)C2C)c1 (stereo unspecified) | 1900 | > 11100 | 48100
COc1cccc(N2CCN(CCNCCc3ccccc3)[C@@H](Cc3ccc(O)cc3)C2)c1 | 397 | 564 | > 10000
Cc1nc2c(=O)n(C)c(=O)nc-2n(C)n1 | 398 | 593 | > 10000
CCC(Nc1ccc(OC)cc1)=C1C(=O)CC(C)(C)CC1=O | 3950 | > 4140 | > 100000

Reference: ChEMBL document CHEMBL1156829 (Proc Natl Acad Sci U S A, 2008)
